Test results published in US5935861A, “Diazonium ion assay reagents and methods for their use” (priority 1997, dated 1999).

Type: physicochemical
Source text: . An exemplary synthesis is the synthesis of 2-methyl-3-nitroaniline diazonium ion (2). In this embodiment, 2-methyl-3-nitroaniline (1) is converted to the diazonium ion (2) by reaction with sodium nitrite in an acidic aqueous medium. The reaction is illustrated in Scheme I below. The 2-methyl-3-nitroaniline diazonium ion (2) is capable of reacting with bilirubin to form a detectable product, and is thus useful in assays for detecting and quantitating bilirubin in a sample. […]

Cc1c(N)cccc1[N+](=O)[O-] [2-methyl-3-nitroaniline]
solubility in water or other aqueous systems (in words): good solubility in aqueous systems
